From patent publication US10765642B2, “Composition for preventing or treating muscle weakness-related diseases comprising sobrerol” (KOREA RESEARCH INSTITUTE OF BIOSCIENCE AND BIOTECHNOLOGY, priority 2015, dated 2020) come the findings set out here.

The test system of one assay is MyoD. As to the kind of experiment: qRT-PCR of myogenic regulatory factor mRNA in C2C12 myoblasts: MyoD. The settings on record: 0.1 μM sobrerol, 48 hours, growth medium. It counts as cell-based. The procedure: (§1) Experiments were conducted to verify the effect of sobrerol on mRNA of myogenic regulatory factor. Specifically, the myoblasts (C2C12 myoblast cells) placed in the growth medium were treated with 0.1 μM sobrerol for 48 hours, and then subjected to qRT-PCR to measure the levels of MyoD, myogenin, and myosin heavy chain (MyHC).

A further assay deals with aged mice. The assay can be described thus: treadmill test in aged mice after exercise restriction. In kind it is in vivo. The following applies: hind limbs immobilized 5 days then remobilization. The procedure:
(§2) Experiments were conducted to confirm whether sobrerol increases muscle strength in aged mice. Female C57BL/6 mice at the age of 21 months were adapted to the environment for 2 weeks and then orally administered with drugs for 5 weeks. Specifically, the negative control group was administered with water, the positive control group was administered with clenbuterol at a concentration of 2 mg/kg (mouse), and the sobrerol administration experimental group was orally administered with sobrerol at a concentration of 17.6 or 35.3 mg/kg (mouse). Then, locomotion tests (grip strength, treadmill) were conducted again to verify the effect.
Both hind limbs of the mice were immobilized for 5 days using a surgical stapler (Autosuture Royal 35W stapler), and after removing the surgical stapler, they were allowed to move again (remobilization), and then exercise capability was evaluated by a treadmill test. As a result, the running time on the treadmill decreased after the exercise restriction as compared to that before the exercise restriction in the control group administered with distilled water, whereas the running time was not affected by exercise restriction in the experiment group administered with sobrerol (FIG. 17).

For assay [1], the system named is tibialis anterior (TA) muscle fibers. The assay can be described thus: muscle fiber diameter (laminin immunofluorescence of tibialis anterior sections) after exercise restriction. In kind it is in vivo, mice. The settings on record: oral. How it is done: (§3) A total of 45 male C57BL/6 mice at 5 weeks of age (Daehan BioLink) were used in this animal experiment. After 2 weeks of adaptation to the surrounding environment, sobrerol was orally administered twice daily since 7 weeks of age. The control group was administered with 200 μL of water/20 g of mouse, and sobrerol was orally administered at a ratio of 1:2:4 [8.8 mg/200 μL/20 g (mouse), 17.6 mg/200 μL/20 g (mouse) and 35.3 mg/200 μL/20 g (mouse)] to verify dose dependency. At 8 weeks of age, both hind limbs of the mice were immobilized for 10 days using a surgical stapler (Autosuture Royal 35W stapler). (A novel hindlimb immobilization procedure for studying skeletal muscle atrophy and recovery in mouse. J Appl Physiol 106: 2049-2059, 2009). After removing the surgical stapler, they were allowed to move again for 3 days (remobilization), and then exercise capability improvement-verification tests (treadmill, and grip tests) were conducted. In addition, after the exercise restriction in the Example 3-3, sections of the tibialis anterior (TA) were stained by immunofluorescence analysis using the antibodies against laminin, which is a protein existing at the periphery of muscle fibers, and the diameter of each muscle fiber was measured.

Assay [2] concerns female C57BL/6 mice at the age of 21 months. The assay can be described thus: muscle weight in aged mice. In kind it is in vivo. The following applies: 35.3 mg/kg. How it is done:
as §2
In addition, changes in the muscle size and the muscle weight of the aged mice by sobrerol were verified by the method of the Example 3-3.
In addition, as in the Example 3-3, the diameter of the muscle fiber of the tibialis anterior (TA) section was measured by immunofluorescence analysis using laminin antibodies.

Another assay deals with myogenin. As to the kind of experiment: qRT-PCR of myogenic regulatory factor mRNA in C2C12 myoblasts: myogenin. It counts as cell-based. The settings on record: 0.1 μM sobrerol, 48 hours, growth medium. How it is done: as §1
A general note: Quantitative PCR measures a nucleic acid by following its amplification.

Assay [3] has as its system myosin heavy chain (MyHC). As to the kind of experiment: qRT-PCR of myogenic regulatory factor mRNA in C2C12 myoblasts: myosin heavy chain. It counts as cell-based. The following applies: 0.1 μM sobrerol, 48 hours, growth medium. The procedure:
as §1

For assay [4], the system named is male C57BL/6 mice. As to the kind of experiment: treadmill test after hind limb immobilization and remobilization. In kind it is in vivo. The settings on record: immobilized mice. How it is done:
A total of 45 male C57BL/6 mice at 5 weeks of age (Daehan BioLink) were used in this animal experiment. After 2 weeks of adaptation to the surrounding environment, sobrerol was orally administered twice daily since 7 weeks of age. The control group was administered with 200 μL of water/20 g of mouse, and sobrerol was orally administered at a ratio of 1:2:4 [8.8 mg/200 μL/20 g (mouse), 17.6 mg/200 μL/20 g (mouse) and 35.3 mg/200 μL/20 g (mouse)] to verify dose dependency. At 8 weeks of age, both hind limbs of the mice were immobilized for 10 days using a surgical stapler (Autosuture Royal 35W stapler). (A novel hindlimb immobilization procedure for studying skeletal muscle atrophy and recovery in mouse. J Appl Physiol 106: 2049-2059, 2009). After removing the surgical stapler, they were allowed to move again for 3 days (remobilization), and then exercise capability improvement-verification tests (treadmill, and grip tests) were conducted. The equipment shown in FIG. 8 was used for the treadmill test. The treadmill test was conducted as shown in FIG. 9 with reference to the treadmill protocol of used for the treadmill test (DOI 10.1016/j.cell.2006.11.013_Cell, Volume 127 Supplemental Data). One day prior to the treadmill test, the equipment was warmed up at a rate of 6 m/min for 10 minutes. At the starting point, electric stimulation was configured to flow so that the mice were forced to exercise. The next day, the test was started at a speed of 8 m/min and the speed was increased by 2 m/min every 20 minutes. One hour after the start of the treadmill test, the speed of 12 m/min was maintained, and the angle was increased by 5° and the electric stimulation was turned off. After 20 minutes, the angle of 5° was maintained but only the speed was increased by 2 m/min. Under the above condition, the running times of the mice were measured and recorded.

In assay [5] the test system is male C57BL/6 mice. The assay can be described thus: grip strength test after hind limb immobilization and remobilization. It counts as in vivo. The procedure:
as §3, with “conducted.” for “conducted. In addition, after the exercise restriction in the Example 3-3, sections of the tibialis anterior (TA) were stained by immunofluorescence analysis using the antibodies against laminin, which is a protein existing at the periphery of muscle fibers, and the diameter of each muscle fiber was measured.”
The grip strength was measured using a grip strength measuring device for mouse (BIOSEB) (FIG. 6). Specifically, the front limbs of the mice of the Example 3-1 were placed on a wire net attached to an instrument panel capable of monitoring the strength, and the strength to hold the wire net was measured while the tail was gripped and pulled downward. The test was repeated three times in succession.

For the molecule `CC1=CCC(C(C)(C)O)CC1O` (centres unmarked) [sobrerol], the “MyoD mRNA increase” value with MyoD was found to be 2 fold. Also, the “treadmill running time after exercise restriction versus before” value with aged mice was “not affected”. For the same molecule, the “diameters of the muscle fibers (tibialis anterior) versus distilled water control” value in assay [1] is recorded as “larger”. For the same molecule, the “weights of the gastrocnemius (GA)” value in assay [2] is listed as “increased to a significant level”. The “myogenin mRNA increase” value with myogenin was found to be 4 fold. Further, in assay [3], the “myosin heavy chain mRNA increase” value is given as at least 25 fold. The “treadmill running time versus group administered with distilled water” value in the assay on male C57BL/6 mice [4] (8.8 mg/kg oral, still shorter than non-immobilization group) is on record as “slightly longer”. Further, the “treadmill running time versus non-immobilization group” value with male C57BL/6 mice [4] (17.6 mg/kg oral) is “almost similar to the non-immobilization group”; in the assay on male C57BL/6 mice [4] (35.3 mg/kg oral) it was “longer as compared to the non-immobilization group”. Further, the “grip strength with higher concentration of sobrerol administered” value with male C57BL/6 mice [5] (oral 8.8, 17.6, 35.3 mg/kg, immobilized mice) is recorded as “increasing tendency”. Also, the “grip strength measurement value” in the assay on male C57BL/6 mice [5] (oral, twice daily, hind limbs immobilized 10 days, remobilization 3 days, negative control 3.5 N or less) is listed as at least 4.0 N.
